# Experimental data published in patent publication US20250127842A1, “IMMUNE […] THERAPEUTIC NANOPARTICLES” (priority 2021, published 2025).
# Tested on: ID8-vegfA-defb29 murine ovarian serous carcinoma cell line
# Experiment: CPMV and CPMV-AUNP therapy in a tumor mouse model (serous ovarian cancer, IP)
# Type: in vivo, C57BL/6J mice
# Procedure: FIGS. 3A-3B: (FIG. 3A) Female C57BL/6 mice were inoculated (i.p.) with 2×10^6 ID8-Defb29/Vegf-A cells followed by six weekly injections (i.p.) of PBS control (n=5), 1 μg AUNP (n=3), 100 μg CPMV (n=5), 100 μg CPMV-AUNP (n=7), 100 μg CPMV+1 μg AUNP physical mixture (n=7). Body weight was measured to monitor tumor growth. Data are means±SEM. Data are plotted for a minimum of n=3 per group. (FIG. 3B) Survival curves of the treatment groups.
# CPMV and CPMV-AUNP therapy in a tumor mouse model: All animal studies were conducted upon approval and in accordance with the University of California, San Diego Institutional Animal Care and Use Committee (IACUC) guidelines. […] Tumor burden was measured by increase in body weight and data were analyzed and plotted using Graphpad Prism software.
# To assay efficacy of the CPMV-AUNP nanoparticle, Applicant used a mouse model of serous ovarian cancer. […] Applicant used luciferase-labeled ID8defb29/vegf cells, allowing us to quantify the disease burden and establishment of disease (data not shown). Imaging is only informative at early time points, before the development of ascites, therefore Applicant used imaging to confirm successful tumor cell injection and tumor formation but then monitored body weight to assess tumor burden and 35 grams body weight was defined as the endpoint for the study. […]
sequence,measurement,setting,value
"SNTSESFGSGGGSGGC [AUNP, anti-PD-1 peptide SNTSESF (side branch of AUNP-12) with GSGGGSGG linker and carboxy-terminal cysteine, from Genscript]",tumor burden as measured by increase in body weight,"1 μg weekly IP, up to day 47 (group removed for non-treatment related reasons)",matched closely the PBS control group
same,"efficacy against disseminated ovarian tumors (survival, tumor burden), in words","weekly IP: 100 μg CPMV or CPMV-AUNP, 1 μg AUNP, or 100 μg CPMV+1 μg AUNP",no apparent effect
